Assay results as given in patent publication US20240336574A1 (LATIGO BIOTHERAPEUTICS, INC., priority 2021, published 2024).
Read-outs that look alike come from different tables or passages of the source.

Biological target: T1, recombinant human NaV1.8 stably transfected HEK cells (Homo sapiens, UniProt Q9Y5Y9)
T1 construct: expressed in transfected cells; host or cells: HEK cells, stably transfected
Experiment: Compound profiling on NaV1.8, human NaV1.8 cell line, SyncroPatch384PE automated patch clamp assay (Example 102, first set of compounds, Table 16)
Format: cell-based
Conditions: human NaV1.8 HEK cells, Table 16 (first set of compounds)
How it was run: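 IC50s come from two read-outs: resting-state block (P1, 10 mV step from −120 mV) and inactivated-state block (P2, after 10 s at −40 mV), scaled between DMSO and 250 μM tetracaine. Compounds (20–0.001 μM final, 1:3 steps) were applied for 5 min, 15 s sweeps. Cells kept at 30 °C the day before.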

[1] = inactivated state block (P2 measurement), read-out: P2IC50
[2] = resting state block (P1 measurement), read-out: P1IC50

T1 sequence (Q9Y5Y9 whole entry): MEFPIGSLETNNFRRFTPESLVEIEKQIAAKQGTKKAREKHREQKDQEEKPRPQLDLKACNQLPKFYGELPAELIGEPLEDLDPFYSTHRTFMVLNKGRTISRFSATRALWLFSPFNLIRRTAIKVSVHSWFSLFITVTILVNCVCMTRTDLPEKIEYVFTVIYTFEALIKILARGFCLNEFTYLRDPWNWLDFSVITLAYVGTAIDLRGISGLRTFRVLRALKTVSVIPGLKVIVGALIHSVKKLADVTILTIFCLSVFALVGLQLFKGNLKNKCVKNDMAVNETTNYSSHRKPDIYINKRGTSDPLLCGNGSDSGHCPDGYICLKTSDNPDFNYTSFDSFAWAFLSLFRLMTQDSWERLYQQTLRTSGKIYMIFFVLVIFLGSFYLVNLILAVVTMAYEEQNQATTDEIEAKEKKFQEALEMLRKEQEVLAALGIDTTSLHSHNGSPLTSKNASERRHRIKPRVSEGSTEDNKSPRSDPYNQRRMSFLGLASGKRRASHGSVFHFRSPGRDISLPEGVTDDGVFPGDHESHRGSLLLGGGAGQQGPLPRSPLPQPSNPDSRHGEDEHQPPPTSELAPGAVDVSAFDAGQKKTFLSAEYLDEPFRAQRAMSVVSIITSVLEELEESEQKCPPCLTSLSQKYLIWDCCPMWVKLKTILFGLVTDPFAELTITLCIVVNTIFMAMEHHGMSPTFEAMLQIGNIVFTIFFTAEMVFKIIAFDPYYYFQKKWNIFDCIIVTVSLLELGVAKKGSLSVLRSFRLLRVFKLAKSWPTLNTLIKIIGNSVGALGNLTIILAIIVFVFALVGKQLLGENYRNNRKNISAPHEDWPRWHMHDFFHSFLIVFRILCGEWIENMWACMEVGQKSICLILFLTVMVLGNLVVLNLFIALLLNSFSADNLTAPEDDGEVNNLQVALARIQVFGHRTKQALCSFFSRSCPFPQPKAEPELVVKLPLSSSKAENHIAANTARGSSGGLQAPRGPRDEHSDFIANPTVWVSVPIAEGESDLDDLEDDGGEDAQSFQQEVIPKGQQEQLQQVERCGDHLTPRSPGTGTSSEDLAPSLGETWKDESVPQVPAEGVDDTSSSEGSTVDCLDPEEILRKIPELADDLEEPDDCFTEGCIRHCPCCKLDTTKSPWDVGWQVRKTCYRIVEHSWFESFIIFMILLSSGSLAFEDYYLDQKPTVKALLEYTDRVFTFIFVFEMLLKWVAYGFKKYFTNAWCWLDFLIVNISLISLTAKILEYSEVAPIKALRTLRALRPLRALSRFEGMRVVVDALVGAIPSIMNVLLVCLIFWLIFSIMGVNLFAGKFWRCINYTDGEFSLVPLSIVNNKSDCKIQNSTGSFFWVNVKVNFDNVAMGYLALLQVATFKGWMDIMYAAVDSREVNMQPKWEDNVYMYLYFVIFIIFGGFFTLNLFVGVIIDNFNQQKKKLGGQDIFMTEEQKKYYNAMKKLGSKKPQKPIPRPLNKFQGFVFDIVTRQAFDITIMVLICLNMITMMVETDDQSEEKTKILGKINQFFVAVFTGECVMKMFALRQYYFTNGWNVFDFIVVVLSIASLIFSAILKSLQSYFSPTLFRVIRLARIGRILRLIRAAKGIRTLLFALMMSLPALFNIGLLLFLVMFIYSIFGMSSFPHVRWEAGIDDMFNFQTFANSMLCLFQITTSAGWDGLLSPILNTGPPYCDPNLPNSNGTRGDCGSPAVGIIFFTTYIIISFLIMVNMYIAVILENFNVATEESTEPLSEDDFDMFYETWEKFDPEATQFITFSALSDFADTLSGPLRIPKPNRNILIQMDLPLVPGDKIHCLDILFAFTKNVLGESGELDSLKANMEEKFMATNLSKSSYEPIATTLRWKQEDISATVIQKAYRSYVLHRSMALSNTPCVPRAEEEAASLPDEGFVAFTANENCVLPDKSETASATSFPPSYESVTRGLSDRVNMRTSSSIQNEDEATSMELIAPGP

IC50 [1] [µM] | IC50 [2] [µM] | SMILES
≤ 0.02 | ≤ 0.02 | CS(=N)(=O)c1cccc(NC(=O)c2cc(C(F)(F)F)cnc2Oc2ccc(Br)cc2C2CC2)c1 (stereo not drawn) [Compound 1648]
0.2 to 0.5 | 0.2 to 0.5 | COc1cc(C#N)ccc1Oc1nnc(C(F)(F)F)c(C)c1C(=O)Nc1cccc(C(=O)NS(C)(=O)=O)c1 [Compound 1542, 3-(4-cyano-2-methoxy-phenoxy)-5-methyl-N-[3-(methylsulfonylcarbamoyl)phenyl]-6-(trifluoromethyl)pyridazine-4-carboxamide]
0.2 to 0.5 | 0.2 to 0.5 | CC(C)(O)c1ccc(Oc2ncc(C(F)(F)F)cc2C(=O)Nc2cccc(S(C)(=O)=O)c2)c(F)c1 [Compound 1664]
≤ 0.02 | ≤ 0.02 | CC(=O)N=[S@](C)(=O)c1cccc(NC(=O)c2cc(C(F)(F)F)cnc2Oc2ccc(F)cc2C)c1 [Compound 1716, N-[3-(N-acetyl-S-methyl-sulfonimidoyl)phenyl]-2-(4-fluoro-2-methyl-phenoxy)-5-(trifluoromethyl)pyridine-3-carboxamide]
0.2 to 0.5 | 0.2 to 0.5 | Cc1cc(C(F)(F)F)c(C)cc1Oc1ncc(C(F)(F)F)cc1C(=O)Nc1cccc(S(C)(=O)=O)c1 [Compound 1616]
0.2 to 0.5 | 0.2 to 0.5 | COC(=O)C12CC(NC(=O)c3cc(C(F)(F)F)cnc3Oc3ccc(C#N)cc3OC)(C1)C2 [Compound 1678]
0.2 to 0.5 | 0.2 to 0.5 | Cc1cc(F)ccc1Oc1nnc(C#N)c(C)c1C(=O)Nc1cccc(S(C)(=N)=O)c1 (stereo not drawn) [Compound 1432, 6-cyano-3-(4-fluoro-2-methyl-phenoxy)-5-methyl-N-[3-(methylsulfonimidoyl)phenyl]pyridazine-4-carboxamide]
≤ 0.02 | ≤ 0.02 | Cc1cc(F)ccc1Oc1ncc(Br)c(C)c1C(=O)Nc1cccc([S@](C)(=N)=O)c1 [Compound 1731, (R)-5-bromo-2-(4-fluoro-2-methylphenoxy)-4-methyl-N-(3-(S-methylsulfonimidoyl)phenyl)nicotinamide]
0.2 to 0.5 | 0.2 to 0.5 | CC#Cc1nnc(Oc2ccc(F)cc2C)c(C(=O)Nc2cccc(S(C)(=N)=O)c2)c1C (stereo not drawn) [Compound 1434, 3-(4-Fluoro-2-methylphenoxy)-5-methyl-N-(3-(S-methylsulfonimidoyl)phenyl)-6-(prop-1-yn-1-yl)pyridazine-4-carboxamide]
≤ 0.02 | ≤ 0.02 | COc1cc(C#N)ccc1Oc1nnc(C(F)(F)F)c(C)c1C(=O)Nc1cccc(S(C)(=O)=O)c1 [Compound 4]
≤ 0.02 | ≤ 0.02 | COc1c(Oc2nnc(C(F)(F)F)c(C)c2C(=O)Nc2cccc(S(C)(=N)=O)c2)ccc(Cl)c1F (stereo not drawn) [Compound 1489, 3-(4-chloro-3-fluoro-2-methoxy-phenoxy)-5-methyl-N-[3-(methylsulfonimidoyl)phenyl]-6-(trifluoromethyl)pyridazine-4-carboxamide]
≤ 0.02 | ≤ 0.02 | CS(=N)(=O)c1cccc(NC(=O)c2cc(C(F)(F)F)cnc2Oc2cccnc2OC(F)(F)F)c1 (single isomer, unassigned) [Compound 1642]
0.2 to 0.5 | 0.2 to 0.5 | Cc1c(C(F)(F)F)nnc(Oc2c(F)cc(OC(F)(F)F)cc2F)c1C(=O)Nc1cccc(S(C)(=O)=O)c1 [Compound 1423]
0.2 to 0.5 | 0.2 to 0.5 | Cn1cc(Oc2ncc(C(F)(F)F)cc2C(=O)Nc2cccc(S(C)(=O)=O)c2)cn1 [Compound 1610]
≤ 0.02 | ≤ 0.02 | COc1c(Oc2ncc(C(F)(F)F)cc2C(=O)Nc2cccc(S(C)(=N)=O)c2)ccc(F)c1Cl (stereo not drawn) [Compound 1618]
≤ 0.02 | ≤ 0.02 | Cc1nc(C#N)ccc1Oc1ncc(C(F)(F)F)cc1C(=O)Nc1cccc(S(C)(=O)=O)c1 [Compound 1693]
0.2 to 0.5 | 0.2 to 0.5 | CS(=O)(=O)c1cccc(NC(=O)c2cc(C(F)(F)F)cnc2Oc2ccc3c(c2)CC(=O)N3)c1 [Compound 1598]
 | 0.2 to 0.5 | Cc1ccc(Oc2nnc(C(F)(F)F)c(C)c2C(=O)Nc2cccc(S(C)(=N)=O)c2)c(C)n1 (single isomer, unassigned) [Compound 1485, 3-[(2,6-dimethylpyridin-3-yl)oxy]-N-{3-[imino(methyl)oxo-λ^6-sulfanyl]phenyl}-5-methyl-6-(trifluoromethyl)pyridazine-4-carboxamide]
0.2 to 0.5 | 0.2 to 0.5 | CS(=O)(=O)c1cccc(NC(=O)c2cc(C(F)(F)F)cnc2Oc2ccn3ccnc3c2)c1 [Compound 1597]
0.04 to 0.2 | 0.04 to 0.2 | COc1cc(C#N)ccc1Oc1nnc(-c2ccccc2F)c(C)c1C(=O)Nc1cccc(S(C)(=N)=O)c1 (stereo not drawn) [Compound 1452, 3-(4-cyano-2-methoxy-phenoxy)-6-(2-fluorophenyl)-5-methyl-N-[3-(methylsulfonimidoyl)phenyl]pyridazine-4-carboxamide]
≤ 0.02 | ≤ 0.02 | COc1cc(C#N)ccc1Oc1nnc(C(F)(F)F)c(C)c1C(=O)Nc1cccc([S@](C)(=N)=O)c1 (single isomer, unassigned) [Compound 1480]
0.04 to 0.2 | 0.04 to 0.2 | CS(=N)(=O)c1cccc(NC(=O)c2cc(C(F)(F)F)cnc2Oc2ccc(OCc3ccccc3)cc2)c1 (stereo not drawn) [Compound 1587]
0.2 to 0.5 | 0.2 to 0.5 | CS(=O)(=O)c1cccc(NC(=O)c2cc(C(F)(F)F)cnc2Oc2ccc3c(c2)NC(=O)C3)c1 [Compound 1601]
0.2 to 0.5 | 0.2 to 0.5 | COc1cc(C#N)ccc1Oc1nnc(C(F)(F)F)c(C)c1C(=O)Nc1cccc(C(=O)NCC2(F)CC2)c1 [Compound 1440, 3-(4-cyano-2-methoxy-phenoxy)-N-[3-[(1-fluorocyclopropyl)methylcarbamoyl]phenyl]-5-methyl-6-(trifluoromethyl)pyridazine-4-carboxamide]
≤ 0.02 | ≤ 0.02 | CNCC(=O)N=[S@](C)(=O)c1cccc(NC(=O)c2cc(C(F)(F)F)cnc2Oc2ccc(F)cc2C)c1 [Compound 1720, (R)-2-(4-fluoro-2-methylphenoxy)-N-(3-(S-methyl-N-(methylglycyl)sulfonimidoyl)phenyl)-5-(trifluoromethyl)nicotinamide]
0.02 to 0.04 | 0.02 to 0.04 | CS(=O)(=O)c1cccc(NC(=O)c2cc(C(F)(F)F)cnc2Oc2ccc(OC(F)F)cc2)c1 [Compound 1563, 2-[4-(difluoromethoxy)phenoxy]-N-(3-methylsulfonylphenyl)-5-(trifluoromethyl)pyridine-3-carboxamide]
0.2 to 0.5 | 0.2 to 0.5 | CO/N=C(\C)c1cccc(NC(=O)c2c(Oc3ccc(C#N)cc3OC)nnc(C(F)(F)F)c2C)c1 [Compound 1545, 3-(4-cyano-2-methoxy-phenoxy)-N-[3-[(E)-N-methoxy-C-methyl-carbonimidoyl]phenyl]-5-methyl-6-(trifluoromethyl)pyridazine-4-carboxamide]
0.04 to 0.2 | 0.04 to 0.2 | COc1cc(C#N)ccc1Oc1nccc(C(F)(F)F)c1C(=O)Nc1cccc(S(C)(=N)=O)c1 (stereo not drawn) [Compound 1653]
0.2 to 0.5 | 0.2 to 0.5 | CS(=O)(=O)c1cccc(NC(=O)c2cc(C(F)(F)F)cnc2Oc2cccc(S(C)(=O)=O)c2)c1 [Compound 1718, 2-(3-methylsulfonylphenoxy)-N-(3-methylsulfonylphenyl)-5-(trifluoromethyl)pyridine-3-carboxamide]
